Source: PMC10265666, “Lung SPLUNC1 Peptide Derivatives in the Lipid Membrane Headgroup Kill Gram-Negative Planktonic and Biofilm Bacteria” (Biomacromolecules, 2023)
Several values for one entry are separate records, joined by “and”; a condition that tells them apart may be missing. Identical values can stand only once. Positions of bridges follow the written chain, without caps; N, C: chain ends. Non-standard residues stand in square brackets, D forms with d. Residues, ends and D or L forms follow the SMILES beside them. *: point of attachment. X1 = CC[C@H](C)CCCCC(=O)*; Dab = NCC[C@H](N)C(=O)O

Assays:
[1] = Circular dichroism secondary structure in G(−)IM ULVs; assay type: physicochemical; details: 10 μM peptide, 15 mM PBS pH 7, 37 °C
Method: Unilamellar vesicles (ULVs) of ∼600 Å diameter were prepared using an Avanti extruder: 200 μL of 20 mg/ml G(−)IM lipid in 15 mM PBS was extruded 21 times through Nucleopore filters of size 500 Å using 0.2 mL Hamilton syringes in the Avanti extruder. The final concentration of G(−)IM lipid in the ULVs was determined gravimetrically to be 15 mg/ml. Concentrated ULVs were added to 3 mL of 10 μM peptide in 15 mM PBS at pH 7 to create lipid/peptide molar ratios between 0:1 and 70:1. The samples remained at room temperature for ∼16 h before the CD measurement. Data were collected in 3 mL quartz cuvettes using a Jasco 1500 CD spectrophotometer at 37 °C in the Center for Nucleic Acids Science and Technology at Carnegie Mellon University. The samples were scanned from 200 to 240 nm 20 times, and the ellipticity (ϵ) results were averaged. Temperature was controlled at 37 °C via a Peltier element and water circulation through the sample compartment. Nitrogen gas was used at a flow rate between 20 and 25 ft^3/h (CFH). The parameters for scanning were: speed 100 nm/min, step size 1.0 nm, response time 1 second, bandwidth 1 nm, and sensitivity of 20 mdeg. OriginPro 2019 (OriginLab, Northampton, MA) was used to carry out a linear least-squares fit of the smoothed ellipticity traces to four secondary structural motifs representing α-helix, β-sheet, β-turn, and random coil.[20] This analysis gives a percentage match of each of the secondary structural motifs to the total sample ellipticity. Data were finally converted to mean residue ellipticity, taking into account the peptide concentration (10 μMolar) and number of amino acids (N), using the equation: MRE = (10^4/N)ϵ deg cm^2/dmol.

[2] = Circular dichroism secondary structure in Euk33 ULVs; assay type: physicochemical; details: 10 μM peptide, 15 mM PBS pH 7, 37 °C
[3] = test system: eukaryotic cells vs bacteria; experiment: Therapeutic index (eukaryotic cell kill concentration / bacterial kill concentration); assay type: cell-based
Method: But more important than cytotoxicity is the therapeutic index (TI), which is the concentration at which ≥90% of eukaryotic cells are killed divided by the concentration at which ≥90% of bacteria are killed. For A4-153, this TI value is an estimated ≈ 128 μM/16 μM ≈ 8. TI for A4-157 is an estimated 128 μM/24 μM ≈ 5, and the TI for A4-183 is an estimated 64 μM/20 μM ≈ 3.

[4] = test system: Klebsiella pneumoniae, 24 clinical isolates and 1 lab strain; assay type: cell-based; details: for antibacterial efficacy: tested G(−) bacteria (K. pneumoniae)
Method: Minimum inhibitory concentration (MIC, defined as the minimum AMP concentration to prevent bacterial growth) and biofilm data were obtained by UV–vis spectroscopy using a BioTek Epoch 2 microplate reader.
K. pneumoniae substrains were grown overnight using 50 mL plastic conical tubes on a shaker platform at 37 °C. The following day, serial dilutions of the four SPLUNC1 peptides and LL-37 were tested against these 25 substrains of K. pneumoniae using a 96-well plate. […] Following the addition of the peptides at the tested concentrations from serial dilutions to the K. pneumoniae substrains, the plates were incubated at 37 °C for 16 h. Then, visible spectroscopy at λ = 570 nm was performed to determine the bacterial absorption in each well. Those wells with an optical density reading above a threshold value were deemed resistant to the peptide, while those that were below the threshold value were deemed sensitive to the peptide. The threshold value was determined using Gen5 software with the Di lab Growth Inhibition Assay protocol.
Average MICs and standard deviations were calculated by first averaging the absorbances as a function of AMP concentration in all of the bacterial strains from four total data sets. Then, the average MICs were determined from the averaged absorbances. The standard deviations of the MICs were calculated from each of the absorbances that were used to calculate the average. Then, the standard deviations were averaged across substrains for the graph. These procedures were used to obtain an average MIC with standard deviation across all 25 substrains for one peptide, in order to compare peptide efficacy. Typically, many more substrains are used to obtain an average MIC, so this average MIC may change if thousands of substrains are compared.

[5] = G(−)IM/peptide molar ratio 10:1
[6] = G(−)IM/peptide molar ratio 15:1
[7] = G(−)IM/peptide molar ratio 20:1
[8] = G(−)IM/peptide molar ratio 25:1
[9] = G(−)IM/peptide molar ratio 30:1
[10] = G(−)IM/peptide molar ratio 40:1
[11] = G(−)IM/peptide molar ratio 50:1
[12] = G(−)IM/peptide molar ratio 70:1

In the case of `CC(C)[C@H](NC(=O)CNC(=O)CNC(=O)[C@@H](NC(=O)[C@H](Cc1c[nH]c2ccccc12)NC(=O)CNC(=O)[C@H](CCCCN)NC(=O)[C@@H](NC(=O)[C@H](CCCCN)NC(=O)[C@H](CCCCN)NC(=O)[C@H](Cc1ccccc1)NC(=O)[C@H](Cc1ccccc1)NC(=O)[C@H](CCCCN)NC(=O)[C@H](CCCCN)NC(=O)[C@@H](N)Cc1ccccc1)C(C)C)C(C)C)C(=O)N[C@@H](Cc1c[nH]c2ccccc12)C(=O)NCC(=O)N[C@@H](CCCCN)C(=O)N[C@H](C(=O)N[C@@H](CCCCN)C(=O)N[C@@H](CO)C(=O)N[C@H](C(=O)N[C@H](C(=O)N[C@@H](CCCCN)C(=O)O)C(C)C)C(C)C)C(C)C` (stereo in doubt) [A4-157], the Random ([1]; G(−)IM/peptide molar ratio 0:1) is reported as 61.7%, the α-helix ([1]; G(−)IM/peptide molar ratio 0:1) is reported as 4.57% and the β-sheet ([1]; G(−)IM/peptide molar ratio 0:1) is reported as 33.6%. For the same molecule, the β-turn ([1]; G(−)IM/peptide molar ratio 0:1) was 0%, the Random ([1]; G(−)IM/peptide molar ratio 1:1) was 61.7% and the α-helix ([1]; G(−)IM/peptide molar ratio 1:1) was 6.9%. The β-sheet ([1]; G(−)IM/peptide molar ratio 1:1) was 31.4%, the β-turn ([1]; G(−)IM/peptide molar ratio 1:1) was 0% and the Random ([1]; G(−)IM/peptide molar ratio 5:1) was 59.5%. The α-helix ([1]; G(−)IM/peptide molar ratio 5:1) was 15.1%, the β-sheet ([1]; G(−)IM/peptide molar ratio 5:1) was 25.4% and the β-turn ([1]; G(−)IM/peptide molar ratio 5:1) was 0%. For the same molecule, the Random [1, 5] was 52.6%, the α-helix [1, 5] was 19.0% and the β-sheet [1, 5] was 28.3%. For the same molecule, the β-turn [1, 5] was 0.1%, the Random [1, 6] was 20.1% and the α-helix [1, 6] was 46.0%. For the same molecule, the β-sheet [1, 6] was 33.9%, the β-turn [1, 6] was 0% and the Random [1, 7] was 26.5%. For the same molecule, the α-helix [1, 7] was 49.3%, the β-sheet [1, 7] was 24.2% and the β-turn [1, 7] was 0%. For the same molecule, the Random [1, 8] was 8.3%, the α-helix [1, 8] was 61.0% and the β-sheet [1, 8] was 28.5%. The β-turn [1, 8] was 2.2%, the Random [1, 9] was 8.1% and the α-helix [1, 9] was 62.1% and 62%. The β-sheet [1, 9] was 28.7%, the β-turn [1, 9] was 1.1% and the Random [1, 10] was 0%. For the same molecule, the α-helix [1, 10] was 59.5%, the β-sheet [1, 10] was 40.5% and the β-turn [1, 10] was 0%. It also gave a Random [1, 11] of 1.0%, a α-helix [1, 11] of 56.4% and a β-sheet [1, 11] of 33.6%. For the same molecule, the β-turn [1, 11] was 0%, the Random [1, 12] was 13.2% and the α-helix [1, 12] was 51.2%. For the same molecule, the β-sheet [1, 12] was 35.6%, the β-turn [1, 12] was 0% and the Random ([2]; Euk33/peptide molar ratio 0:1) was 61.7%. It also gave a α-helix ([2]; Euk33/peptide molar ratio 0:1) of 4.57%, a β-sheet ([2]; Euk33/peptide molar ratio 0:1) of 33.6% and a β-turn ([2]; Euk33/peptide molar ratio 0:1) of 0%. For the same molecule, the Random ([2]; Euk33/peptide molar ratio 5:1) was 64.2%, the α-helix ([2]; Euk33/peptide molar ratio 5:1) was 3.3% and the β-sheet ([2]; Euk33/peptide molar ratio 5:1) was 32.5%. The β-turn ([2]; Euk33/peptide molar ratio 5:1) was 0%, the Random ([2]; Euk33/peptide molar ratio 10:1) was 64.4% and the α-helix ([2]; Euk33/peptide molar ratio 10:1) was 7.3%. The β-sheet ([2]; Euk33/peptide molar ratio 10:1) was 28.3%, the β-turn ([2]; Euk33/peptide molar ratio 10:1) was 0% and the Random ([2]; Euk33/peptide molar ratio 30:1) was 59.1%. It also gave a α-helix ([2]; Euk33/peptide molar ratio 30:1) of 10%, a β-sheet ([2]; Euk33/peptide molar ratio 30:1) of 30.9% and a β-turn ([2]; Euk33/peptide molar ratio 30:1) of 0%. The Random ([2]; Euk33/peptide molar ratio 70:1) was 42.5%, the α-helix ([2]; Euk33/peptide molar ratio 70:1) was 7.4% and the β-sheet ([2]; Euk33/peptide molar ratio 70:1) was 50.1%. The β-turn ([2]; Euk33/peptide molar ratio 70:1) was 0%, the “concentration at which ≥90% of bacteria are killed” value ([3]; denominator of TI) was 24 µM and the “concentration at which ≥90% of eukaryotic cells are killed (estimated)” value ([3]; numerator of TI) was “≈ 128 μM”.

With `CC[C@H](C)CCCCC(=O)N[C@@H](CCN)C(=O)N[C@H](C(=O)N[C@@H](CCN)C(=O)N[C@H]1CCNC(=O)[C@H]([C@@H](C)O)NC(=O)[C@H](CCN)NC(=O)[C@H](CCN)NC(=O)[C@H](CC(C)C)NC(=O)[C@@H](CC(C)C)NC(=O)[C@H](CCN)NC1=O)[C@@H](C)O` [colistin, reference compound] (X1-[Dab]T[Dab][Dab][Dab][dL]L[Dab][Dab]T; lactam 4-C (inferred); N-terminus assumed) the “average MIC, colistin-susceptible substrains only” value ([4]; 13 colistin-susceptible K. pneumoniae substrains) was 0.88 µM and the “MIC in the colistin-sensitive substrains” value ([4]; colistin-sensitive K. pneumoniae substrains) was less than 2 µM.

With “GVKKKWKKKLGLTLWLKISGVV [A4-198, version scrambled to α-helical content, with a similar hydrophobicity as A4-153]” the “average MIC value” ([4]; average over 25 K. pneumoniae substrains, 37 °C, 16 h, OD 570 nm, growth at 32 μM counted as 64 μM) was “highest MIC value”, the “antibacterial efficacy” value [4] was “ineffective” and the Random ([1]; G(−)IM/peptide molar ratio 0:1) was 35.9%. For the same molecule, the α-helix ([1]; G(−)IM/peptide molar ratio 0:1) was 2.9%, the β-sheet ([1]; G(−)IM/peptide molar ratio 0:1) was 56.7% and the β-turn ([1]; G(−)IM/peptide molar ratio 0:1) was 4.5%. The Random ([1]; G(−)IM/peptide molar ratio 1:1) was 32.7%, the α-helix ([1]; G(−)IM/peptide molar ratio 1:1) was 2.6% and the β-sheet ([1]; G(−)IM/peptide molar ratio 1:1) was 55.9%. For the same molecule, the β-turn ([1]; G(−)IM/peptide molar ratio 1:1) was 8.8%, the Random ([1]; G(−)IM/peptide molar ratio 5:1) was 41.0% and the α-helix ([1]; G(−)IM/peptide molar ratio 5:1) was 22.0%. The β-sheet ([1]; G(−)IM/peptide molar ratio 5:1) was 24.4%, the β-turn ([1]; G(−)IM/peptide molar ratio 5:1) was 12.6% and the Random [1, 5] was 42.11%. For the same molecule, the α-helix [1, 5] was 15.5%, the β-sheet [1, 5] was 32.0% and the β-turn [1, 5] was 10.4%. The Random [1, 6] was 12.1%, the α-helix [1, 6] was 9.1% and the β-sheet [1, 6] was 48.1%. It also gave a β-turn [1, 6] of 30.7%, a Random [1, 7] of 30.7% and a α-helix [1, 7] of 4.6%. It also gave a β-sheet [1, 7] of 44.5%, a β-turn [1, 7] of 20.2% and a Random [1, 9] of 34.9%. For the same molecule, the α-helix [1, 9] was 0.2%, the β-sheet [1, 9] was 44.5% and the β-turn [1, 9] was 20.4%. It also gave a Random [1, 11] of 37.6%, a α-helix [1, 11] of 0.2% and a β-sheet [1, 11] of 46.4%. For the same molecule, the β-turn [1, 11] was 15.8%, the Random [1, 12] was 37.1% and the α-helix [1, 12] was 2.0%. It also gave a β-sheet [1, 12] of 46.2%, a β-turn [1, 12] of 14.7% and a Random ([2]; Euk33/peptide molar ratio 0:1) of 35.9%. It also gave a α-helix ([2]; Euk33/peptide molar ratio 0:1) of 2.9%, a β-sheet ([2]; Euk33/peptide molar ratio 0:1) of 56.7% and a β-turn ([2]; Euk33/peptide molar ratio 0:1) of 4.5%. The Random ([2]; Euk33/peptide molar ratio 5:1) was 34.7%, the α-helix ([2]; Euk33/peptide molar ratio 5:1) was 5.7% and the β-sheet ([2]; Euk33/peptide molar ratio 5:1) was 53.6%. The β-turn ([2]; Euk33/peptide molar ratio 5:1) was 6.0%, the Random ([2]; Euk33/peptide molar ratio 10:1) was 37.0% and the α-helix ([2]; Euk33/peptide molar ratio 10:1) was 5.9%. For the same molecule, the β-sheet ([2]; Euk33/peptide molar ratio 10:1) was 51.9%, the β-turn ([2]; Euk33/peptide molar ratio 10:1) was 5.2% and the Random ([2]; Euk33/peptide molar ratio 30:1) was 38.7%. The α-helix ([2]; Euk33/peptide molar ratio 30:1) was 6.2% and 6%, the β-sheet ([2]; Euk33/peptide molar ratio 30:1) was 49.4% and the β-turn ([2]; Euk33/peptide molar ratio 30:1) was 5.7%. The Random ([2]; Euk33/peptide molar ratio 70:1) was 41.8%, the α-helix ([2]; Euk33/peptide molar ratio 70:1) was 10.3% and the β-sheet ([2]; Euk33/peptide molar ratio 70:1) was 47.9%. The β-turn ([2]; Euk33/peptide molar ratio 70:1) was 0%.

For “LL-37: the human cathelicidin, natural AMP control [reference compound]”, the “antibacterial efficacy” value [4] was “ineffective”.
